Reference: article PMC5014320, “Screen of Non-annotated Small Secreted Proteins of Pseudomonas syringae Reveals a Virulence Factor That Inhibits Tomato Immune Proteases” (PLoS Pathogens, 2016)
Counter-ions that a name gives are not always drawn.

Assays:
papain [1] = target: T1, papain (Carica papaya, UniProt P00784); assay: chromogenic protease assay, Lineweaver-Burk; type: biochemical; conditions: pH 6.8, 1 mM glutathione, 37 °C, 0.1-5 mM BAPNA
T1 construct: commercial purified papain (Sigma-Aldrich)
T1 sequence (P00784 134-345): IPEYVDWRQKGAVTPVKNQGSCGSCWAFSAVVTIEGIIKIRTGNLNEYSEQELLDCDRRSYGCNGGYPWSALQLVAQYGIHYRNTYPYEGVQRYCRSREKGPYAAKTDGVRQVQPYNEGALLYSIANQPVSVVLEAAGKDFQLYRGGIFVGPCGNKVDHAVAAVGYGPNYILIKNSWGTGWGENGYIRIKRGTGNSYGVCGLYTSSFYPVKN

papain [2] = target: papain (UniProt P00784); assay: enzyme inhibition kinetics (Lineweaver-Burk)

Compound | chromogenic protease assay, Lineweaver-Burk (papain [1]) | Ki (papain [2]) [nM]
N=C(N)NCCC[C@H](NC(=O)c1ccccc1)C(=O)Nc1ccc([N+](=O)[O-])cc1 [BAPNA, Nα-Benzoyl-L-arginine 4-nitroanilide hydrochloride] | classical protease inhibition assays on purified papain using the chromogenic substrate BAPNA | 
C14-inhibiting protein-1 (Cip1), wild type (natural protein) |  | 3.98
